According to patent US11407725B2 (The Board of Trustees of the University of Illinois, priority 2018, dated 2022):

Tests used:
[1] = pKa determination (pH profile of fluorescence); conditions: 40 mM Britton-Robinson buffer
Procedure: (§1) The fluorescence of 1 μM of each compound was measured in 40 mM Britton-Robinson buffer at pH 2-9 in 0.5 pH intervals. Each measurement was performed in triplicate. […] Error bars are ±standard deviation (SD).

[2] = test system: e-CSC and non-CSC melanoma lung metastases; assay: Ex vivo lung metastases imaging; type: in vivo, mice; conditions: lungs perfused ex vivo, day 7 and 11
Procedure: Six to eight-week-old female C57BL/6J mice were purchased from Jackson Laboratory. Experimental metastases were established by injecting 2×10^5 melanoma cells via lateral tail vein injection. Mice were euthanized at either 7- or 11-days post injection. Immediately after euthanization, their lungs were excised and perfused with about 1 mL of either 15 μM AlDeSense AM or 15 μM Ctrl-AlDeSense AM in PBS. Outer portions of the lungs were rinsed in 15 mL of PBS to remove blood or excess dyes. After 2 hours incubation at room temperature (25° C.), the lungs were imaged on the IVIS spectrum imaging system (Perkin Elmer). Data was processed using Living Image software (Version 4.1).

K562 cells = assay: Flow cytometry of K562 cells stained with AlDeSense; type: cell-based, human
Procedure: K562 cells were resuspended in PBS to a final concentration of 100,000 cells/mL. The suspension was divided into 0.5 mL aliquots and the cells were collected by centrifugation at 1000 rpm for 5 min at 4° C. Each sample was then resuspended in premixed AlDeSense AM or Ctrl-AlDeSense AM solutions (1.5 μM, PBS). For each dye, triplicate samples were prepared. Cells were incubated with dye for 30 minutes at room temperature with rocking to prevent cell clumping and ensure even dye distribution. At the end of the incubation period, cells were again collected by centrifugation at 1000 rpm for 5 min at 4° C. The dye solution was removed by aspiration, and each sample of cells were resuspended in 0.5 mL of PBS. The samples were immediately placed on ice until analysis. The samples were analyzed by a BD LSR II Flow Cytometry Analyzer using a 488 nm laser and a FITC filter. Data analyzed on FCS Express 6.04.
The day before imaging, Nunc™ Lab-Tek™ Chamber Slide™ systems (Thermo Fisher) were coated with poly-L-lysine (Trevigen) according to manufacturer's instructions. Cells were added to the chamber slides at a concentration of 400,000 cells/mL, yielding 90% confluent cells after 24 h. […] Images were analyzed using ImageJ software (Version 1.5 in).

A549 cells = assay: Confocal imaging of A549 cells with red-AlDeSense; type: cell-based; conditions: 1 μM dye
Procedure: Nunc™ Lab-Tek™ 8-well Chamber Coverglass (Thermo Fisher) were coated with poly-L-lysine (Trevigen). For cells that were also stained with an antibody, 2,000,000 cells were transferred to an Eppendorf tube. The cells were resuspended in 200 μL of antibody buffer (5% BSA and 1 mg/mL NaN3 in PBS) and treated with 2 μL FITC-labeled anti-CD44 antibody (10 mg/mL, Sino Biological) and left on ice for 20 minutes. In all cases, cells were added at 150,000 cells/well to the coated slides 1 hour prior to imaging. […] Cells were treated with 100 uL red-AlDeSense or Ctrl-red-AlDeSense solution (4 μM dye in imaging buffer; dyes were normalized by fluorescence spectroscopy) and 0.8 μL Hoescht 33342 (5 mg/mL in PBS) for 10 minutes. […] Hoescht 33342 was excited with a 405 nm laser and detected with a 415-502 filter set. FITC was excited with a 488 nm laser and detected with a 502-561 filter set. […] was excited with a 594 nm laser and detected with a 600-735 filter set. […] Images were analyzed using ZEN 3.0 (blue edition) software. Mean fluorescence for the FITC-labeled anti-CD44 antibody was multiplied by the cell diameter to account for its 1-dimensional cell membrane staining, as opposed to 2-dimensional intracellular staining of (Ctrl-)red-AlDeSense.

[3] = test system: ALDH1A2, ALDH2, ALDH3A1, ALDH4A1, and ALDH5A1; assay: ALDH isoform selectivity of red-AlDeSense: other isoforms; type: biochemical, human; conditions: 2 μM dye
Procedure: Each ALDH isoform was added to a 50 mM triethanolamine solution (pH 7.4) containing 2.0 mM NAD^+ and 100 μM substrate at room temperature. Benzaldehyde was the substrate for ALDH3A1. Propanal was the substrate for all other isoforms. ALDH isoform activity was determined by monitoring the rate of NADH production through the increase in absorbance at 340 nm (ε=6220 M^−1cm^−1). For these assays, 1 unit is defined as the amount of enzyme that catalyzes the conversion of […] per minute. For every combination of dye and enzyme, 2 μM dye was preincubated with 2.0 mM NAD^+ in 50 mM triethanolamine solution (pH 7.4). The reaction was initiated by addition of 1 unit of ALDH. Dyes were excited at 590 nm, and fluorescence was measured continuously at 610 nm.

Procedure for physchem: as §1

Compound	pKa [1]	fluorescence of e-CSC lungs versus non-CSC lungs [2]	brightness of stained K562 cells versus AlDeSense with inhibitor or Ctrl-AlDeSense (K562 cells)	A549 cells with high ALDH1A1 activity by confocal microscopy (A549 cells)	pKa (physchem)	cross-reactivity with ALDH1A2, ALDH2, ALDH3A1, ALDH4A1, ALDH5A1 [3]
Cc1cc(C=O)ccc1-c1c2cc(F)c(=O)cc-2oc2cc(O)c(F)cc12 [AlDeSense]	4.81	higher	significantly brighter			
Cc1cc(C=O)c(F)c(F)c1C1=C2C=CC(=O)C=C2[Si](C)(C)c2cc(O)ccc21				77.6%	6.68	no cross-reactivity
